Assay results as given in article PMC10265666, “Lung SPLUNC1 Peptide Derivatives in the Lipid Membrane Headgroup Kill Gram-Negative Planktonic and Biofilm Bacteria” (Biomacromolecules, 2023).

Legend:
[1] = test system: Klebsiella pneumoniae biofilms; assay: Biofilm growth (crystal violet); format: cell-based
Method: Minimum inhibitory concentration (MIC, defined as the minimum AMP concentration to prevent bacterial growth) and biofilm data were obtained by UV–vis spectroscopy using a BioTek Epoch 2 microplate reader.
The planktonic samples in the wells were then drained by inversion of the plate. The plate was washed with PBS prior to staining with 125 μL of 0.5% Crystal Violet (in 20% ethanol) for 15 min. Excess stain was removed by washing twice with distilled water. The bacterial remnants on the walls of the wells were analyzed at λ = 620 nm to observe any adhered bacteria. The absorbance values as percent of control (no AMP) do show a tendency of bacterial adherence to the wells. In this work, we will refer to the adhered bacteria after incubation at 37 °C for 16 h as biofilms.

3T3 fibroblast cells = format: cell-based, murine
Method: The TetraZ cell counting kit was used to quantify cell proliferation and cell viability. It is based on a water-soluble tetrazolium salt, which, when reduced by cellular dehydrogenases, produces a chromophore. ∼5 × 10^4 immortalized mouse RAW 264.7 macrophages and 3T3 fibroblast cells were incubated in a 96-well plate and allowed to attach for 24 h. AMPs in cell culture medium (DMEM D5796, 10% FBS, 1% P/S) were added to the wells. Cells were incubated at 37 °C for 4 h with the SPLUNC1 peptide derivatives at 8, 16, 32, and 64 μM concentrations. 10 μL of TetraZ was added and incubated for an additional 1.5 h at 37 °C. A Biotek Epoch 2 visible spectrophotometer was used to read the absorbance. The absorbance by the chromophore at λ = 450nm is proportional to the number of live cells (see standard curves, Figures S1 and S2, and additional cell line results (Figures S3 and S4) in the S.I.).

[2] = Circular dichroism secondary structure in G(−)IM ULVs; format: physicochemical; conditions: 10 μM peptide, 15 mM PBS pH 7, 37 °C
Method: Unilamellar vesicles (ULVs) of ∼600 Å diameter were prepared using an Avanti extruder: 200 μL of 20 mg/ml G(−)IM lipid in 15 mM PBS was extruded 21 times through Nucleopore filters of size 500 Å using 0.2 mL Hamilton syringes in the Avanti extruder. The final concentration of G(−)IM lipid in the ULVs was determined gravimetrically to be 15 mg/ml. Concentrated ULVs were added to 3 mL of 10 μM peptide in 15 mM PBS at pH 7 to create lipid/peptide molar ratios between 0:1 and 70:1. The samples remained at room temperature for ∼16 h before the CD measurement. Data were collected in 3 mL quartz cuvettes using a Jasco 1500 CD spectrophotometer at 37 °C in the Center for Nucleic Acids Science and Technology at Carnegie Mellon University. The samples were scanned from 200 to 240 nm 20 times, and the ellipticity (ϵ) results were averaged. Temperature was controlled at 37 °C via a Peltier element and water circulation through the sample compartment. Nitrogen gas was used at a flow rate between 20 and 25 ft^3/h (CFH). The parameters for scanning were: speed 100 nm/min, step size 1.0 nm, response time 1 second, bandwidth 1 nm, and sensitivity of 20 mdeg. OriginPro 2019 (OriginLab, Northampton, MA) was used to carry out a linear least-squares fit of the smoothed ellipticity traces to four secondary structural motifs representing α-helix, β-sheet, β-turn, and random coil.[20] This analysis gives a percentage match of each of the secondary structural motifs to the total sample ellipticity. Data were finally converted to mean residue ellipticity, taking into account the peptide concentration (10 μMolar) and number of amino acids (N), using the equation: MRE = (10^4/N)ϵ deg cm^2/dmol.

[3] = test system: eukaryotic cells vs bacteria; assay: Therapeutic index (eukaryotic cell kill concentration / bacterial kill concentration); format: cell-based
Method: But more important than cytotoxicity is the therapeutic index (TI), which is the concentration at which ≥90% of eukaryotic cells are killed divided by the concentration at which ≥90% of bacteria are killed. For A4-153, this TI value is an estimated ≈ 128 μM/16 μM ≈ 8. TI for A4-157 is an estimated 128 μM/24 μM ≈ 5, and the TI for A4-183 is an estimated 64 μM/20 μM ≈ 3.

[4] = G(−)IM/peptide molar ratio 10:1
[5] = G(−)IM/peptide molar ratio 15:1
[6] = G(−)IM/peptide molar ratio 20:1
[7] = G(−)IM/peptide molar ratio 30:1
[8] = G(−)IM/peptide molar ratio 50:1
[9] = G(−)IM/peptide molar ratio 70:1

Compound: CC[C@H](C)[C@H](NC(=O)[C@@H](NC(=O)[C@H](CO)NC(=O)[C@H](CCCCN)NC(=O)[C@@H](NC(=O)[C@H](CCCCN)NC(=O)CNC(=O)[C@H](Cc1c[nH]c2ccccc12)NC(=O)[C@@H](NC(=O)CNC(=O)CNC(=O)[C@@H](NC(=O)[C@H](Cc1c[nH]c2ccccc12)NC(=O)CNC(=O)[C@H](CCCCN)NC(=O)[C@@H](NC(=O)[C@H](CCCCN)NC(=O)[C@H](CCCCN)NC(=O)[C@H](Cc1ccccc1)NC(=O)[C@H](Cc1ccccc1)NC(=O)[C@H](CCCCN)NC(=O)[C@H](CCCCN)NC(=O)[C@@H](N)CC(C)C)C(C)C)C(C)C)C(C)C)C(C)C)C(C)C)C(=O)N[C@@H](CCCCN)C(=O)O (stereo in doubt) [A4-153]
- prevention of biofilm formation ([1]; 25 K. pneumoniae substrains, 16 h at 37 °C, crystal violet, 620 nm): generally more efficient than the other peptides at preventing biofilm formation
- number of colistin-resistant substrains in which the peptide was the most effective at inhibiting biofilm formation ([1]; out of 11 colistin-resistant substrains, at ∼16 μM): eight
- number of colistin-susceptible substrains in which the peptide was the most effective at inhibiting biofilm formation ([1]; out of 13 colistin-susceptible substrains, at ∼16 μM): seven
- concentration required for 0% viable cells (estimate) (3T3 fibroblast cells): 128 µM
- viable cells compared to the control (3T3 fibroblast cells; 64 µM): ~30%
- Random ([2]; G(−)IM/peptide molar ratio 0:1): 57.7%
- α-helix ([2]; G(−)IM/peptide molar ratio 0:1): 6.4%
- β-sheet ([2]; G(−)IM/peptide molar ratio 0:1): 34.2%
- β-turn ([2]; G(−)IM/peptide molar ratio 0:1): 1.7%
- Random ([2]; G(−)IM/peptide molar ratio 1:1): 51.7%
- α-helix ([2]; G(−)IM/peptide molar ratio 1:1): 11.9%
- β-sheet ([2]; G(−)IM/peptide molar ratio 1:1): 32.4%
- β-turn ([2]; G(−)IM/peptide molar ratio 1:1): 4.0%
- Random ([2]; G(−)IM/peptide molar ratio 5:1): 62.9%
- α-helix ([2]; G(−)IM/peptide molar ratio 5:1): 10.2%
- β-sheet ([2]; G(−)IM/peptide molar ratio 5:1): 26.9%
- β-turn ([2]; G(−)IM/peptide molar ratio 5:1): 0%
- Random [2, 4]: 62.5%
- α-helix [2, 4]: 14.8%
- β-sheet [2, 4]: 17.7%
- β-turn [2, 4]: 5.0%
- Random [2, 5]: 15.6%
- α-helix [2, 5]: 41.9%
- β-sheet [2, 5]: 41.2%
- β-turn [2, 5]: 1.3%
- Random [2, 6]: 0%
- α-helix [2, 6]: 78.3%
- β-sheet [2, 6]: 8.0%
- β-turn [2, 6]: 13.7%
- Random [2, 7]: 4.6%
- α-helix [2, 7]: 78.5%
- β-sheet [2, 7]: 10.2%
- β-turn [2, 7]: 6.7%
- Random [2, 8]: 0%
- α-helix [2, 8]: 77.4%
- β-sheet [2, 8]: 13.6%
- β-turn [2, 8]: 9.0%
- Random [2, 9]: 0%
- α-helix [2, 9]: 64.1%
- β-sheet [2, 9]: 15.1%
- β-turn [2, 9]: 20.8%
- concentration at which ≥90% of bacteria are killed ([3]; denominator of TI): 16 µM
- concentration at which ≥90% of eukaryotic cells are killed (estimated) ([3]; numerator of TI): ≈ 128 μM
